According to patent US10888541B2, “Method and compositions for treatment and prevention of broad spectrum virus ailments comprising a calcium channel blocker or a calmodulin blocker” (DR. KENNETH ADAMS MEDICINE PROFESSIONAL CORPORATION, priority 2009, dated 2021):

Key:
[1] = Case report: Rheumatoid Arthritis of the hands, topical ointment; conditions: for pain in hand: person, within hours of applying; for mobility of joints: sustained applications over several days
Genital Herpes = assay: Case report: recurrent Genital Herpes; assay type: in vivo, human
Source text: Patient with a long history of recurrent Genital Herpes was using Diltiazem.

cold sores = assay: Case reports: recurrent cold sores, topical application; assay type: in vivo, human; conditions: Patient A, 100 mg/ml topically
[2] = Case report: fever, chills, muscle aches, nausea and diarrhea; assay type: in vivo, human; conditions: person; 120 mg tablets every 8 hours; within one hour of first tablet
Source text: A person with a three day history of fever, chills, muscle aches and nausea. On the second and third days the patient developed increasing diarrhea. On the morning of the third day the patient was experiencing loose, watery stools with a cramps and lower abdominal pain.

Herpes Zoster infection = assay: Case report: Herpes Zoster infection; assay type: in vivo, human; conditions: elderly patient; 120 mg SR twice daily
Source text: Elderly patient with Herpes Zoster infection on the upper left abdomen.

HIV = assay: Case report: HIV patient, T4 helper counts; assay type: in vivo, human; conditions: 240 mg (120 mg of verapamilSR) twice daily for 2 weeks
[3] = Case report: latex glove allergy (delayed hypersensitivity reaction); assay type: in vivo, human
Source text: A person surgeon with a latex glove allergy. Symptoms of a red eczematous rash develops when they use latex gloves.

[4] = test system: viral upper respiratory infection; assay: Case report: viral upper respiratory infection, intranasal/throat spray
Source text: person with symptoms of viral upper respiratory infection started experiencing nasal congestion and nasal discharge.

## COc1ccc([C@@H]2Sc3ccccc3N(CCN(C)C)C(=O)[C@@H]2OC(C)=O)cc1 [Diltiazem, diltiazem]
[1]
  pain in hand: significant reduction of pain in their hand
  mobility of joints: improved mobility of joints
Genital Herpes; after starting treatment, before: several episodes per year
  frequency of genital herpes recurrences: 1-2 episodes per year
Genital Herpes; when on treatment
  size and healing of genital herpes episodes: much smaller and seemed to heal much quicker
Cold sores
  cold sore infection when applied in the initial tingling phase: the infection could be prevented
  severity and size of cold sore when application delayed until eruption visible: minimize the severity, reduce the size
Cold sores; application delayed until eruption visible, usual 7 days
  time to complete healing clearance: 2 to 4 days

## COc1ccc(CCN(C)CCCC(C#N)(c2ccc(OC)c(OC)c2)C(C)C)cc1OC (centres unmarked) [Verapamil, verapamil]
[1]
  pain in hand: significant reduction of pain in their hand
  mobility of joints: improved mobility of joints
[2]
  abdominal cramping, stools and diarrhea: abdominal cramping began subsiding and their stools began to become more formed and diarrhea improved
Herpes Zoster infection
  pain, rash and healing of lesions: reduced pain, reduced rash and rapid healing of lesions
HIV
  T4 helper counts: significant rise in T4 helper counts
[3]; 200 mg/ml ointment
  chronic rash from daily exposure to latex: improved within hours
[3]; 200 mg/ml ointment applied prior to wearing latex gloves
  delayed hypersensitivity reaction to latex gloves: prevented
[4]; 0.2 ml of 2 mg/ml sprayed into each nostril and back of throat
  time until nasal discharge stopped: approximately 20 minutes
[4]; next day, after repeated 0.1 ml applications intranasally and to throat
  upper respiratory symptoms: cleared
[4]; person, 0.2 ml of 2 mg/ml sprayed into each nostril and back of throat, within minutes
  nasal congestion and nasal discharge: reduction in nasal congestion and decreased nasal discharge
